Test results as given in patent US20230159916A1, “METHODS OF FUNCTIONAL LINKAGE OF CHROMOSOMAL POSITIONS” (ARPEGGIO BIOSCIENCES, INC., priority 2020, published 2023).

How the values were obtained:
[1] = test system: HMOX1; assay: RT-qPCR of HMOX1 expression in A673 cells; type: cell-based; conditions: A673, 1 μM, four hours
Protocol: (§1) To confirm HMOX1 induction by the GPX4 inhibitors, an RT-qPCR assay was performed using three ferroptosis sensitive cancer cell lines: the fibrosarcoma cell line HT-1080, a Ewing's sarcoma cell line A673, and a renal clear cell carcinoma cell line 786-O. Briefly, cells were exposed to 1 μM ML162 or 1 μM RSL3 for 4 hours, RNA was isolated and an RT-qPCR assay was performed.
(§2) Briefly, HT-1080, A673, and 786-O cells were exposed to 1 μM ML162 or 1 μM RLS3 with or without 1 μM ferrostatin-1 for four hours, RNA was isolated and an RT-qPCR assay was performed to quantify HMOX1 expression. DMSO was used as a control exposure.

[2] = test system: HMOX1; assay: nascent RNA sequencing of IMR90 cells exposed to GPX4 inhibitors; type: cell-based; conditions: IMR90, 1 μM, 1 hour, Pval 10^−3
Protocol: (§3) To assess the transcriptional response of a cell to inhibition of GPX4, we exposed two cell lines to two different chemical inhibitors of GPX4 (ML162 and RSL3; available from Sigma Aldrich and Apex Bio respectively) and examined the transcriptional responses using a nascent RNA sequencing protocol. Briefly, a fibrosarcoma cell line HT-1080 and a lung fibroblast cell line IMR90 were exposed to 1 μM ML162 or 1 μM RSL3 for 1 hour and the nascent RNA sequencing protocol was performed.

[3] = test system: HMOX1; assay: RT-qPCR of HMOX1 expression in HT-1080 cells; type: cell-based; conditions: for expression of HMOX1 relative to ACTB, absence of ferrostatin-1: HT-1080, 1 μM, four hours; for effect of ferrostatin-1 on the substance's induction of HMOX1: HT-1080, sodium arsenite 80 μM, hemin 5 μM, RSL3 1 μM, with or without 1 μM ferrostatin-1, four hours, normalized to DMSO
Protocol: as §1
To further validate induction of HMOX1 mRNA expression by GPX4 inhibition, RT-qPCR was performed using varying doses of the RSL3 inhibitor. Briefly, HT-1080 cells were exposed to 5 μM RSL3, 1 μM RSL3, and 0.2 μM RSL3 for four hours, RNA was isolated and an RT-qPCR assay was performed to quantify HMOX1 expression. DMSO was used as a control exposure.
as §2
Sodium arsenite and hemin are known to be inducers of general oxidative stress in cells. Briefly, HT-1080 cells were exposed to sodium arsenite (80 μM), hemin (5 μM), ML162 (1 μM), or RSL3 (1 μM) with or without 1 μM ferrostatin-1 for four hours, RNA was isolated and an RT-qPCR assay was performed to quantify HMOX1 expression. DMSO was used as a control exposure.

[4] = test system: HMOX1; assay: RT-qPCR of HMOX1 expression in 786-O cells; type: cell-based; conditions: 1 μM, four hours
Protocol: as §1, §2

[5] = test system: HMOX1; assay: nascent RNA sequencing of HT-1080 cells exposed to GPX4 inhibitors; type: cell-based; conditions: HT-1080, 1 μM, 1 hour, Pval<10^−2
Protocol: as §3

[6] = test system: HMOX1; assay: RT-qPCR of HMOX1, ferrostatin-1 rescue of GPX4 inhibitor-mediated induction in HT-1080, A673 and 786-O cells; type: cell-based; conditions: HT-1080, A673, 786-O; 1 μM ferrostatin-1 with 1 μM ML162 or RSL3, four hours
Protocol: as §2

[7] = test system: HT-1080, A673, and 786-O cells lines; conditions: ferrostatin-1 added to the culture media; HT-1080, A673, 786-O; cited from earlier work

Compound | expression of HMOX1 relative to ACTB, absence of ferrostatin-1 [1] | differential expression of HMOX1 (nascent RNA sequencing) [2] | expression of HMOX1 relative to ACTB, absence of ferrostatin-1 [3] | expression of HMOX1 relative to ACTB, absence of ferrostatin-1 [4] | differential expression of HMOX1 (nascent RNA sequencing) [5] | effect of ferrostatin-1 on the substance's induction of HMOX1 [3] | further results
COc1ccc(N(C(=O)CCl)C(C(=O)NCCc2ccccc2)c2cccs2)cc1Cl (centres unmarked) [ML162] | HMOX1 expression was observed in all three cell lines | strongly differentially expressed | HMOX1 expression was observed in all three cell lines | HMOX1 expression was observed in all three cell lines | strongly differentially expressed |  | expression of HMOX1 relative to ACTB, presence of ferrostatin-1 ([3]; HT-1080, 1 μM inhibitor with 1 μM ferrostatin-1, four hours): induced HMOX1 even in the presence of ferrostatin-1
hemin |  |  |  |  |  | not affected by the presence of ferrostatin-1 | 
COC(=O)c1ccc([C@@H]2c3[nH]c4ccccc4c3C[C@@H](C(=O)OC)N2C(=O)CCl)cc1 [RSL3] | HMOX1 expression was observed in all three cell lines | strongly differentially expressed | HMOX1 expression was observed in all three cell lines | HMOX1 expression was observed in all three cell lines | strongly differentially expressed | dependent on lipid peroxidation | dose dependence of HMOX1 expression relative to ACTB ([3]; HT-1080, 5 μM, 1 μM and 0.2 μM RSL3, four hours): proportional to the dose
CCOC(=O)c1ccc(NC2CCCCC2)c(N)c1 [ferrostatin-1] |  |  |  |  |  |  | effect of ferrostatin-1 on induction of HMOX1 by RSL3 and ML162 [6]: sufficient to prevent induction of HMOX1 in most conditions; cellular viability of cells treated with small molecules that induce lipid peroxidation (e.g., GPX4 inhibitors) [7]: rescues cellular viability
O=[As]O [sodium arsenite] |  |  |  |  |  | not affected by the presence of ferrostatin-1 | 
